Test [1] concerns Medicago truncatula roots and hypocotyls. Nature of the test: Endophytic colonization of Medicago truncatula seedlings (CFU recovered from interior). The format is in vivo. From the text:
(§1) Bacterial strains and inoculum preparation. BA3104 was constructed by sequential P22 transduction into 14028 using a P22HTint lysate grown on the SL3201 fliC::Tn10 fliB::MudJ strain kindly provided by Dr. Allison O'Brien (Schmitt et al., 2001). pHC112 was constructed by amplifying the spaS gene of 14028 (nucleotides 28 to 1327 of GenBank accession number AE008832) using Taq DNA polymerase. The spaS fragment was cloned into pCR-2.1-TOPO (Invitrogen), removed using EcoRI, and cloned into the EcoRI site of pWSK29 (Wang and Kushner 1991). pHC113 was constructed in the same way except that the sipB gene was amplified (nucleotides 18133 to 20138 of GenBank accession number AE008831). Bacterial strains were cultured and inoculum prepared as described previously (Dong et al., 2003a; Dong et al., 2003b) with the exception of the experiments designed to estimate the number of infection events. For these experiments the inoculum strains were composed of a mixture of either 14028 or Kp342 with and without a constitutively expressed GFP gene.
(§2) Seed surface sterilization, germination, inoculation, plant culture and harvest. The manipulation of plants, from seed surface sterilization to plant harvest, were carried out by methods developed previously (Dong et al., 2003a; Dong et al., 2003b).
(§3) Determination of microbial population within surface sterilized plant tissue. With the exception of the M. truncatula sickle experiment, where the whole plant tissue was used to determine microbial populations, only the root and hypocotyl were examined for bacterial colonization. The procedures used for surface sterilization, determination of endophytic microbial populations and statistical analysis were done as described previously (Dong et al., 2003a; Dong et al., 2003b).
(§4) Assurance of endophytic colonization results. To ensure the endophytic colonization numbers presented reflect only the number of cells within the interior of plant tissue, previously developed methods were followed (Dong et al., 2003a; Dong et al., 2003b).
Induction of ethylene response in seedlings. To induce ethylene responses, seedlings were cultured in growth medium as described previously (Dong et al., 2003a) supplemented with 5 μM 1-aminocyclopropane-1-carboxylic acid (ACC). ACC was dissolved in water and filter sterilized prior to its addition to autoclaved plant growth media. In most experiments, seedlings were exposed to media containing ACC for 12 hours prior to inoculation.
Preparation and use of 1-methylcyclopropene (1-MCP). The gaseous ethylene action inhibitor, 1-MCP, was prepared and stored as described by Hall et al. (2000). 1-MCP was generated from ETHYLBLOC, which was provided by A. B. Bleecker (University of Wisconsin—Madison). The concentration of 1-MCP in ETHYLBLOC is of 0.14%. A stock of 1-MCP of 100 ppm was created in a serum bottle of 121.5 ml in volume. This was accomplished by adding 19.44 mg of ETHYLBLOC and 0.5 ml of hot H2O to the serum bottle and set to rest for 15 minutes. The stock was used to dispense 0.3 ml of headspace gas to 30 ml stopped test tubes where the plants were cultured, resulting in a final concentration of 1 ppm per tube. The plant cultures were placed under conditions as described previously (Dong et al., 2003a; Dong et al., 2003b) with the exception of a rubber stopper used to conceal 1-MCP. The stoppers were removed daily, flushed with air, stopped again and finally freshly prepared 1-MCP was added to the desired final concentration.

The subject of test [2] is Medicago sativa roots and hypocotyls. The experiment in a line: Endophytic colonization of alfalfa seedlings (CFU recovered from interior of roots and hypocotyls). It is filed as in vivo.
Description: as §1, §2, §3, §4
Induction of ethylene response in seedlings. […]

Test [3] relates to PR1::GUS. The experiment in a line: GUS histochemical staining and GUS fluorogenic assay in PR1::GUS plants. The following applies: histochemical staining and fluorogenic assays. It is filed as in vivo, Arabidopsis thaliana. The protocol:
GUS histochemical staining and GUS fluorogenic assay. Roots of transgenic Arabidopsis thaliana Col-0 harboring a pathogenesis-related 1 (PR1) gene promoter fused to the bacterial uidA (β-glucuronidase) reporter gene (PR1::GUS) were inoculated with 10^7 CFU S. enterica 14028, the 14028 sipB mutant, and the complemented sipB mutant,. Exogenous application of salicylic acid (5 mM) and infiltration of leaves with 10^7 CFU of an avirulent strain of P. syringae DC3000 carrying the avrRpt2 on plasmid PV288 were used as positive controls (Kunkel et al., 1993; Ton et al., 2002). The histochemical assay was performed as described by Sundaresan et al. (1995) with slight modifications (Sundaresan et al., 1995). Plants were immersed in staining buffer (50 mM sodium phosphate pH7, 10 mM EDTA, 0.1% Triton X-100, 100 μg/ml chloramphenicol, 5 mM potassium ferricyanide and 0.5 mg/ml 5-bromo-4-chloro-3-indolyl-β-D-glucuronide (X-Glc). Plants were then vacuum infiltrated, incubated overnight at 37° C., and destained with 70% ethanol.
To conduct the quantitative GUS fluorogenic assay, whole plants were flash-frozen in liquid N2 and crushed. The fluorogenic assay and protein extraction were done as described by (Jefferson et al, 1987). Protein concentration of the samples was determined using a BCA protein assay kit (PIERCE, Rockford, Ill.).

Test [4] concerns Triticum aestivum roots. The experiment in a line: Endophytic colonization of wheat seedlings (CFU recovered from interior of roots and hypocotyls). It is filed as in vivo. The following applies: varying amounts of ACC.
Description: as §1, §2
Determination of microbial population within surface sterilized plant tissue. […]

Entries after “also recorded” stand apart in the source; their conditions may differ.

As for `CC1=CC1` [1-MCP, 1-methylcyclopropene], the “Endophytic colonization upon treatment” value in test [1] (1 ppm 1-MCP, regardless of presence or absence of exogenous ACC, Kp342) was “significantly higher endophytic colonization”. Besides, the “Effect on the ACC-induced reduction in endophytic colonization of alfalfa” value in test [2] (1 ppm 1-MCP, 5 μM ACC) is “reversed the reduction in endophytic colonization of alfalfa observed with ACC”.

As to `O=C(O)c1ccccc1O` [salicylic acid], the “PR1::GUS induction / expression” value in test [3] is “strongly induced”.

On to `C=C` [ethylene], for which the “Endophytic colonization in plants exposed to C2H4 or ACC for the same time period” value in test [1] (5 μM, Kp342) is on record as “No difference in endophytic colonization”. Besides, the “Time of application needed for maximal inhibition of endophytic colonization” value in test [1] (C2H4 5 μM applied from one day prior to up to 6 days after inoculation) is “prior to, or at the time of inoculation”. Further, in test [1] (Kp342), the “Time after exposure at which effects on endophytic colonization become significant” value came to 96 h.

With `NC1(C(=O)O)CC1` [ACC, 1-aminocyclopropane-1-carboxylic acid], in test [1] (5 μM ACC at inoculation, 10^2 cells of Kp342 per plant, days 0-6), the “Number of Kp342 cells within roots over time with ACC treatment” value was “statistically different from the controls on days 4, 5, and 6; also recorded: does not change significantly with ACC treatment until four days after inoculation”. Also, in test [2] (colonization by S. typhimurium 14028, wild-type M. sativa, ACC in growth media (5 μM)), the “Reduction of endophytic colonization” value was “four”. In addition, the “Decrease of endophytic colonization” value in test [2] (wild-type strain (14028), FIG. 6) is given as “over two orders of magnitude”. Moreover, the “Decline in number of cells within wheat roots” value in test [4] (14028 cells) is on record as 1.2 orders of magnitude; in test [4] (Kp342 cells), 1.85 orders of magnitude.
